From the NIST ThermoML archive (doi:10.1016/j.tca.2017.05.009)
± gives the expanded uncertainty stated by the source.

Conditions: Crystal; DTA

[Sn] [tin]
Normal melting temperature: 231.90 ± 2 °C
